Source: US10752587B2, “Homobispiperidinyl derivatives as liver X receptor beta agonists, compositions and their use” (Merck Sharp & Dohme Corp., priority 2015, dated 2020)
Like-named read-outs stand apart in the source and are kept apart here.

How the values were obtained:
[1] = molecular target: T1, glutathione-S-transferase (GST) tagged LXRbeta LBD (ligand binding domain) (Homo sapiens, UniProt P55055); test: LanthaScreen TR-FRET Liver X Receptor Coactivator Assay, co-activator recruitment to LXRbeta LBD; type: biochemical; conditions: for EC50: potency (Inflection Point, IP), co-activator recruitment to LXRbeta LBD, in relation to T0901317, read-out: LXR beta IP; for Emax: read-out: LXR beta Activity @ max dose (%)
T1 construct: purchased Invitrogen pv4658.pps
T1 sequence (P55055 222-460 limits assumed): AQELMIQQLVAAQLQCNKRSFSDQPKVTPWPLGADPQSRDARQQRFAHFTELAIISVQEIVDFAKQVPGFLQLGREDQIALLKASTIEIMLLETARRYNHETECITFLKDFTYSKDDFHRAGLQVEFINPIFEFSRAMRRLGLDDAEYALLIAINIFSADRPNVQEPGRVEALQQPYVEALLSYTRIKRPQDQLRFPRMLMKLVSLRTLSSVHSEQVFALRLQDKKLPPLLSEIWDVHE
Method in brief: (§1)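 GST-tagged LBD added to test compound, then fluorescein-labelled coactivator peptide plus terbium anti-GST antibody; incubated at room temperature, TR-FRET read. Potency given as inflection point and efficacy as Emax relative to reference dual agonist T0901317.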

[2] = molecular target: T2, glutathione-S-transferase (GST) tagged LXRalpha LBD (ligand binding domain) (Homo sapiens, UniProt Q13133); test: LanthaScreen TR-FRET Liver X Receptor Coactivator Assay, co-activator recruitment to LXRalpha LBD; type: biochemical; conditions: for EC50 / LXR alpha IP (nM): potency (Inflection Point, IP), co-activator recruitment to LXRalpha LBD, in relation to T0901317; for EC50: read-out: LXR alpha IP; for Emax: read-out: LXR alpha Activity @ max dose (%)
T2 construct: purchased Invitrogen pv4655
T2 sequence (Q13133 209-447 limits assumed): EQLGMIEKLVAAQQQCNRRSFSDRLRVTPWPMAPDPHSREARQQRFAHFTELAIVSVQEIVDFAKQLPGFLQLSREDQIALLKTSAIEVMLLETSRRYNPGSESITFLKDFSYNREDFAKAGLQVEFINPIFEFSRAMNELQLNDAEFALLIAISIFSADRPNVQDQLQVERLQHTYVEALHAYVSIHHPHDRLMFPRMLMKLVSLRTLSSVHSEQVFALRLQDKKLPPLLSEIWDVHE
Method in brief: as §1

[3] = efficacy at max dose, in relation to reference dual agonist T0901317

SMILES: Cc1nc(N2CCC(CC3CCN(C(=O)C(O)(c4cccc(Cl)c4)C(F)(F)F)CC3)CC2)ccc1C(=O)N(C)C (stereo not shown) [Example 7-7, 6-[4-({1-[2-(3-chlorophenyl)-3,3,3-trifluoro-2-hydroxypropanoyl]piperidin-4-yl}methyl)piperidin-1-yl]-N,N,2-trimethylpyridine-3-carboxamide]
- EC50 [1]: 0.036 µM
- Emax [1]: 95%
- EC50 [2]: 0.508 µM
- Emax [2]: 24%

SMILES: CNC(=O)c1ccc(N2CCC(CC3CCN(C(=O)[C@](O)(c4cccc(C(F)(F)F)c4)C(F)(F)F)CC3)CC2)cc1Cl [Example 7-128, 2-chloro-N-methyl-4-{4-[(1-{(2R)-3,3,3-trifluoro-2-hydroxy-2-[3-(trifluoromethyl)phenyl]propanoyl}piperidin-4-yl)methyl]piperidin-1-yl}benzamide]
- Emax [1, 3]: 78%
- EC50 [1]: 0.051 µM
- Emax [2, 3]: 30%
- EC50 [2]: 1.18 µM

SMILES: CN(C)C(=O)c1ccc(N2CCC(CC3CN(C(=O)C(O)(c4cccc(C(F)(F)F)c4)C(F)(F)F)C3)CC2)cc1Cl (stereo not shown) [Example 2-66, 2-chloro-N,N-dimethyl-4-{4-[(1-{3,3,3-trifluoro-2-hydroxy-2-[3-(trifluoromethyl)phenyl]propanoyl}azetidin-3-yl)methyl]piperidin-1-yl}benzamide]
- Emax [1, 3]: 69%
- EC50 [1]: 0.05 µM
- Emax [2, 3]: 14%
- LXR alpha IP (nM) [2]: NO IP

SMILES: CN(C)C(=O)c1ccc(N2CCC(CC3CCN(C(=O)C(C)(C)c4ccccc4)CC3)CC2)nc1Cl [Example 7-61, 2-chloro-N,N-dimethyl-6-(4-{[1-(2-methyl-2-phenylpropanoyl)piperidin-4-yl]methyl}piperidin-1-yl)pyridine-3-carboxamide]
- Emax [1, 3]: 68%
- EC50 [1]: 0.045 µM
- Emax [2, 3]: 21%
- EC50 [2]: 0.817 µM

SMILES: CCOc1cccc([C@@](O)(C(=O)N2CCC(CC3(C)CCN(c4ccc(C(=O)N(C)C)c(C)n4)CC3)CC2)C(F)(F)F)c1 [Example 7-14, 6-[4-({1-[(2R)-2-(3-ethoxyphenyl)-3,3,3-trifluoro-2-hydroxypropanoyl]piperidin-4-yl}methyl)-4-methyl-piperidin-1-yl]-N,N,2-trimethylpyridine-3-carboxamide]
- Emax [1, 3]: 100%
- EC50 [1]: 0.105 µM
- Emax [2, 3]: 0%
- LXR alpha IP (nM) [2]: NO IP

SMILES: CC(C)c1cccc(C(O)(C(=O)N2CCC(CC3CCN(c4ccc(C(=O)N(C)C)c(Cl)n4)CC3)CC2)C(F)(F)F)c1 (stereo not shown) [Example 7-84, 2-chloro-N,N-dimethyl-6-{4-[(1-{3,3,3-trifluoro-2-hydroxy-2-[3-(1-methylethyl)phenyl]propanoyl}piperidin-4-yl)methyl]piperidin-1-yl}pyridine-3-carboxamide]
- Emax [1, 3]: 54%
- EC50 [1]: 0.013 µM
- Emax [2, 3]: 11%
- LXR alpha IP (nM) [2]: NO IP

SMILES: CCc1cccc([C@@](O)(C(=O)N2CCC(CC3CCN(c4ccc(C(=O)NC)c(Cl)c4)CC3)CC2)C(F)(F)F)c1 [Example 7-120, 2-chloro-4-[4-({1-[(2R)-2-(3-ethylphenyl)-3,3,3-trifluoro-2-hydroxypropanoyl]piperidin-4-yl}methyl)piperidin-1-yl]-N-methylbenzamide]
- Emax [1, 3]: 60%
- EC50 [1]: 0.022 µM
- Emax [2, 3]: 12%
- LXR alpha IP (nM) [2]: NO IP

SMILES: CN(C)C(=O)c1ccc(N2CCC(CC3CCN(C(=O)C(F)(F)c4cccc(Cl)c4)CC3)CC2)nc1Cl [Example 7-81, 2-chloro-6-[4-({1-[(3-chlorophenyl) (difluoro)acetyl]piperidin-4-yl}methyl)piperidin-1-yl]-N,N-dimethylpyridine-3-carboxamide]
- Emax [1, 3]: 51%
- EC50 [1]: 0.206 µM
- Emax [2, 3]: 19%
- LXR alpha IP (nM) [2]: NO IP

SMILES: COc1cccc([C@@](O)(C(=O)N2CC(CC3CCN(c4ccc(C(=O)N(C)C)c(Cl)c4)CC3)C2)C(F)F)c1 [Example 2-70, 2-chloro-4-[4-({1-[(2R)-3,3-difluoro-2-hydroxy-2-(3-methoxy-phenyl)propanoyl]azetidin-3-yl}methyl)piperidin-1-yl]-N,N-dimethyl-benzamide]
- Emax [1, 3]: 48%
- EC50 [1]: 0.092 µM
- Emax [2, 3]: 2%
- LXR alpha IP (nM) [2]: NO IP

SMILES: CCOc1cccc([C@@](O)(C(=O)N2CCC(CC3CCN(c4ccc(C(=O)N(C)C)c(C5CC5)n4)CC3)CC2)C(F)(F)F)c1 [Example 7-12, 2-cyclopropyl-6-[4-({1-[(2R)-2-(3-ethoxyphenyl)-3,3,3-trifluoro-2-hydroxypropanoyl]piperidin-4-yl}methyl)piperidin-1-yl]-N,N-dimethylpyridine-3-carboxamide]
- Emax [1, 3]: 71%
- EC50 [1]: 0.024 µM
- Emax [2, 3]: 6%
- LXR alpha IP (nM) [2]: NO IP

SMILES: CN(C)C(=O)c1ccc(N2CCC(OC3CCN(C(=O)C(O)(c4cccc(C(F)(F)F)c4)C(F)(F)F)CC3)CC2)cc1Cl (stereo not shown) [Example 2-25, 2-chloro-N,N-dimethyl-4-{4-[(1-{3,3,3-trifluoro-2-hydroxy-2-[3-(trifluoromethyl)phenyl]propanoyl}piperidin-4-yl)oxy]piperidin-1-yl}benzamide]
- Emax [1, 3]: 89%
- EC50 [1]: 0.028 µM
- Emax [2, 3]: 26%
- EC50 [2]: 0.695 µM

SMILES: CNC(=O)c1ccc(N2CCC(CC3CCN(C(=O)[C@](O)(c4cccc(OC)c4)C(F)(F)F)CC3)CC2)nc1Cl [Example 7-135, 2-chloro-N-methyl-6-[4-({1-[(2R)-3,3,3-trifluoro-2-hydroxy-2-(3-methoxyphenyl)propanoyl]piperidin-4-yl}methyl)piperidin-1-yl]pyridine-3-carboxamide]
- Emax [1, 3]: 81%
- EC50 [1]: 0.013 µM
- Emax [2, 3]: 14%
- LXR alpha IP (nM) [2]: NO IP

SMILES: COc1cc(Cl)cc([C@](O)(C(=O)N2CCC(CC3CCN(c4ccc(C(=O)N(C)C)c(Cl)n4)CC3)CC2)C(F)(F)F)c1 [Example 7-108, 2-chloro-6-[4-({1-[(2S)-2-(3-chloro-5-methoxyphenyl)-3,3,3-trifluoro-2-hydroxypropanoyl]piperidin-4-yl}methyl)piperidin-1-yl]-N,N-dimethylpyridine-3-carboxamide]
- Emax [1, 3]: 101%
- EC50 [1]: 0.047 µM
- Emax [2, 3]: 10%
- LXR alpha IP (nM) [2]: NO IP

SMILES: CN(C)C(=O)c1ccc(N2CCC(CC3CN(C(=O)[C@](O)(c4cc(Cl)cc(Cl)c4)C(F)(F)F)C3)CC2)cc1Cl [Example 2-67, 2-chloro-4-[4-({1-[(2R)-2-(3,5-dichloro-phenyl)-3,3,3-trifluoro-2-hydroxy-propanoyl]azetidin-3-yl}methyl)piperidin-1-yl]-N,N-dimethyl-benzamide]
- Emax [1, 3]: 77%
- EC50 [1]: 0.019 µM
- Emax [2, 3]: 9%
- LXR alpha IP (nM) [2]: NO IP

SMILES: Cc1cc(N2CCC(CC3CCN(C(=O)[C@](O)(c4cc(F)cc(Cl)c4)C(F)(F)F)CC3)CC2)ccc1C(=O)N(C)C [Example 2-153, 4-[4-({1-[(2R)-2-(3-chloro-5-fluorophenyl)-3,3,3-trifluoro-2-hydroxy-propanoyl]piperidin-4-yl}methyl)piperidin-1-yl]-N,N,2-trimethyl-benzamide]
- Emax [1, 3]: 95%
- EC50 [1]: 0.008 µM
- Emax [2, 3]: 41%
- EC50 [2]: 0.123 µM

SMILES: Cc1cccc([C@@](O)(C(=O)N2CCC(CC3CCN(c4ccc(C(=O)N(C)C)c(C)c4)CC3)CC2)C(F)(F)F)c1 [Example 2-157, N,N,2-trimethyl-4-[4-({1-[(2R)-3,3,3-trifluoro-2-hydroxy-2-(3-methylphenyl)propanoyl]piperidin-4-yl}methyl)piperidin-1-yl]benzamide]
- Emax [1, 3]: 43%
- EC50 [1]: 0.016 µM
- Emax [2, 3]: 9%
- LXR alpha IP (nM) [2]: NO IP

SMILES: COc1cccc([C@@](O)(C(=O)N2CCC(CC3CCN(c4ccc(C(=O)N(C)C)c(Cl)c4)CC3)CC2)C(C)C)c1 [Example 2-115, 2-chloro-4-[4-({1-[(2R)-2-hydroxy-2-(3-methoxy-phenyl)-3-methyl-butanoyl]piperidin-4-yl}methyl)piperidin-1-yl]-N,N-dimethyl-benzamide]
- Emax [1, 3]: 30%
- EC50 [1]: 0.053 µM
- Emax [2, 3]: 0%
- LXR alpha IP (nM) [2]: NO IP

SMILES: CN(C)C(=O)c1ccc(N2CCC(CC3CCN(C(=O)C4(c5ccccc5Cl)CC4)CC3)CC2)nc1Cl [Example 7-53, 2-chloro-6-{4-[(1-{[1-(2-chlorophenyl)cyclopropyl]carbonyl}piperidin-4-yl)methyl]piperidin-1-yl}-N,N-dimethylpyridine-3-carboxamide]
- Emax [1, 3]: 118%
- EC50 [1]: 0.031 µM
- Emax [2, 3]: 45%
- EC50 [2]: 0.571 µM

SMILES: CN(C)C(=O)c1ccc(N2CCC(CC3CCCN(C(=O)[C@](O)(c4ccccc4)C(F)(F)F)CC3)CC2)cc1Cl (stereo partly drawn) [Example 2-160, 2-chloro-N,N-dimethyl-4-[4-({1-[(2R)-3,3,3-trifluoro-2-hydroxy-2-phenyl-propanoyl]azepan-4-yl}methyl)piperidin-1-yl]benzamide]
- Emax [1, 3]: 33%
- EC50 [1]: 0.026 µM
- Emax [2, 3]: 12%
- LXR alpha IP (nM) [2]: NO IP
